Test results taken from ChEMBL document CHEMBL5331047 (Eur J Med Chem, 2022).

Key:
[1] = Oral bioavailability in ferret at 10 mg/kg measured upto 24 hrs by LC-MS/MS assay; format: ADME, organism-based, Mustela putorius furo; conditions: in vivo
[2] = AUC in rat at 20 mg/kg; format: ADME, organism-based; design: dose 20 mg/kg; conditions: in vivo
[3] = Cmax in rat at 20 mg/kg; format: ADME, organism-based; design: dose 20 mg/kg; conditions: in vivo
[4] = AUC in rat at 10 mg/kg; format: ADME, organism-based; design: dose 10 mg/kg; conditions: in vivo
[5] = Cmax in rat at 10 mg/kg; format: ADME, organism-based; design: dose 10 mg/kg; conditions: in vivo
Influenza A virus = experiment: Antiviral activity against influenza A virus H5N1 infected in dog MDCK cells assessed as viral growth inhibition; format: functional, organism-based
Neuraminidase = Neuraminidase (Influenza A virus, UniProt B4URF0)
[6] = Oral bioavailability in rat; format: ADME, organism-based; conditions: in vivo

Structure (SMILES): CCCCCCCC(=O)OC[C@@H](O)[C@@H](OC)[C@@H]1OC(C(=O)O)=C[C@H](NC(=N)N)[C@H]1NC(C)=O [LANINAMIVIR OCTANOATE]
- bioavailability [1]: 3.5%

Structure (SMILES): CCC(CC)O[C@@H]1C=C(C(=O)O)C[C@H](NCc2ccc(Sc3ccccc3)cc2)[C@H]1NC(C)=O
- AUC [2]: 1500 ng·h/mL
- Cmax [3]: 407 ng/mL

Structure (SMILES): CCC(CC)O[C@@H]1C=C(C(=O)O)CC(N)[C@H]1NC(C)=O (some centres undefined)
- AUC [4]: 300 ng·h/mL
- Cmax [5]: 30 ng/mL
- EC50 (Influenza A virus): 2300 nM

Structure (SMILES): CC(=O)N[C@@H]1[C@@H](N)CC(C(=O)O)=C[C@H]1OC1CCSC1 (some centres undefined)
- IC50 (Neuraminidase): 2.9 nM

Structure (SMILES): CCC(CC)[C@H](NC(C)=O)[C@@H]1[C@H](O)[C@@H](C(=O)O)C[C@H]1NC(=N)N [PERAMIVIR ANHYDROUS]
- bioavailability [6]: 2.5%

Structure (SMILES): CCC(CC)O[C@@H]1C=C(C(=O)O)C[C@H](NC(=O)COCCOCCOCCOCCN[C@H](C(=O)N2C[C@H](O)CC2C(=O)NCc2ccc(-c3scnc3C)cc2)C(C)(C)C)[C@H]1NC(C)=O (some centres undefined)
- EC50 (Influenza A virus): 290 nM
